Where “and” joins values, the source holds several entries; their conditions need not be identical. Identical values can stand only once. ± gives the expanded uncertainty stated by the source.
Key:
[1] = mn = molality of the nth substance listed, in mol/kg; conditions: 100 kPa, Liquid; for viscosity: Capillary tube (Ostwald / Ubbelohde) method; for speed of sound: Frequency=3 MHz, Single path-length method; for mass density: Vibrating tube method
[2] = 100 kPa, Liquid; for viscosity: Capillary tube (Ostwald / Ubbelohde) method

CN(C)C(=N)NC(=N)N.Cl [N,N-dimethylimidodicarbonimidic diamide hydrochloride] + O
[1]
Conditions	mass density, m1 = 0.005 [kg/m3]	mass density, m1 = 0.01 [kg/m3]	mass density, m1 = 0.05 [kg/m3]	speed of sound, m1 = 0.005 [m/s]	speed of sound, m1 = 0.01 [m/s]	speed of sound, m1 = 0.05 [m/s]	viscosity, m1 = 0.005 [mPa·s]	viscosity, m1 = 0.01 [mPa·s]	viscosity, m1 = 0.05
293.15 K	998.35 ± 0.45	998.57 ± 0.45	999 ± 0.45	1483 ± 6	1483.3 ± 6	1483.7 ± 6	1.006 ± 0.027	1.01 ± 0.027	1.014 ± 0.027 mPa·s
298.15 K	997.2 ± 0.45	997.4 ± 0.45	997.91 ± 0.45	1497 ± 6	1497.3 ± 6	1497.7 ± 6	0.891 ± 0.027	0.893 ± 0.027	0.895 ± 0.027 mPa·s and 0.8947 ± 0.026 mPa·s
303.15 K	995.72 ± 0.45	995.99 ± 0.45	996.53 ± 0.45	1509.4 ± 6	1509.7 ± 6	1510 ± 6	0.799 ± 0.026	0.801 ± 0.026	0.804 ± 0.026 mPa·s
308.15 K	994.19 ± 0.45	994.37 ± 0.45	994.92 ± 0.45	1520 ± 6	1520.3 ± 6	1520.7 ± 6	0.722 ± 0.026	0.725 ± 0.026	0.728 ± 0.026 mPa·s and 0.7276 ± 0.026 mPa·s
313.15 K	992.38 ± 0.45	992.54 ± 0.45	993.1 ± 0.45	1529.1 ± 6	1529.4 ± 6	1529.7 ± 6	0.655 ± 0.026	0.657 ± 0.026	0.659 ± 0.026 mPa·s

O [water]
[2]
Conditions	viscosity [mPa·s]
293.15 K	1.002 ± 0.027
298.15 K	0.89 ± 0.027
303.15 K	0.797 ± 0.026
308.15 K	0.719 ± 0.026
313.15 K	0.652 ± 0.026

Conditions	speed of sound [m/s]
[2], 313.15 K, Frequency=3 MHz, Single path-length method	1528.8 ± 6

From the NIST ThermoML archive (doi:10.1021/acs.jced.8b00509)
